From US11040031B2, “Pyrazole derivatives as MALT1 inhibitors” (Janssen Pharmaceutica NV, priority 2018, dated 2021)

Target: T1, full-length MALT1 protein (Strep-MALT1(1-824)-His) (Homo sapiens, UniProt Q9UDY8)
T1 sequence (Q9UDY8 1-824): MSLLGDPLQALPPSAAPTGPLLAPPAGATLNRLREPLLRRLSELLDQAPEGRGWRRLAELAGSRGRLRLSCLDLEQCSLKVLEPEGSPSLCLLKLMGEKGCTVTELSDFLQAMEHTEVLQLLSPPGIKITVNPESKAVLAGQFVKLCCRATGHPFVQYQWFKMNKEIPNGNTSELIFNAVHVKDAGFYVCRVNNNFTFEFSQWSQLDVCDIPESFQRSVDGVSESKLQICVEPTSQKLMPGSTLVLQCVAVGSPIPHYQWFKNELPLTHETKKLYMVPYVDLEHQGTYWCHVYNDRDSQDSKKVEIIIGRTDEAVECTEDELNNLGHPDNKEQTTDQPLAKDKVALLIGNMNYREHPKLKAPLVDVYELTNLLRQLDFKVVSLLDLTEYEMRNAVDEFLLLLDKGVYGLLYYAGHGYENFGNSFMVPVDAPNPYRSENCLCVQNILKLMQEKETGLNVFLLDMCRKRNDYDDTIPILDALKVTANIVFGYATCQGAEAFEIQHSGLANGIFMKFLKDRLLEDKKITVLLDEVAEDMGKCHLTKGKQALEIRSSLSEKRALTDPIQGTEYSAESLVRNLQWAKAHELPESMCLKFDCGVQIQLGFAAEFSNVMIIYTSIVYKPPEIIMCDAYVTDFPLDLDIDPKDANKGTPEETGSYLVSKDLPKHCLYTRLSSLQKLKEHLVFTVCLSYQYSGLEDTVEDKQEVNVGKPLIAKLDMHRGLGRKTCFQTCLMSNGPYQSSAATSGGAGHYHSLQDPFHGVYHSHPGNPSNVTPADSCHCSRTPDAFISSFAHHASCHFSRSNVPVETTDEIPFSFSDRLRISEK
Experiment: biochemical
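Also: fluorogenic LRSR-AMC substrate cleavage by MALT1, 50 min compound preincubation then 4 h reaction at RT, 11-point dilution from 30 µM, scaled between enzyme-free and untreated enzyme controls.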

IC50 [nM] | SMILES
6610 | N#Cc1cnc(-n2ncc(C(=O)Nc3cnc(-n4nccn4)c(C#N)c3)c2C(F)(F)F)c(Cl)c1 [Cpd 31, 1-(3-chloro-5-cyanopyridin-2-yl)-N-(5-cyano-6-(2H-1,2,3-triazol-2-yl)pyridin-3-yl)-5-(trifluoromethyl)-1H-pyrazole-4-carboxamide]
575 | O=C(Nc1cnc(-n2nccn2)c(Cl)c1)c1cnn(-c2c(F)cccc2Cl)c1C(F)(F)F [Cpd 90, N-(5-chloro-6-(2H-1,2,3-triazol-2-yl)pyridin-3-yl)-1-(2-chloro-6-fluorophenyl)-5-(trifluoromethyl)-1H-pyrazole-4-carboxamide]
123 | N#Cc1ccc(-n2ncc(C(=O)Nc3cnc(-n4nccn4)c(Cl)c3)c2C(F)(F)F)c(Cl)c1 [Cpd 110, 1-(2-chloro-4-cyanophenyl)-N-(5-chloro-6-(2H-1,2,3-triazol-2-yl)pyridin-3-yl)-5-(trifluoromethyl)-1H-pyrazole-4-carboxamide]
5490 | CS(=O)(=O)c1ccccc1-n1ncc(C(=O)Nc2cnc(-n3nccn3)c(Cl)c2)c1C(F)(F)F [Cpd 138, N-(5-chloro-6-(2H-1,2,3-triazol-2-yl)pyridin-3-yl)-1-(2-(methylsulfonyl)phenyl)-5-(trifluoromethyl)-1H-pyrazole-4-carboxamide]
457 | O=C(Nc1cnc(-n2nccn2)c(Cl)c1)c1cnn(-c2c(Cl)cc(F)cc2Cl)c1C(F)(F)F [Cpd 93, N-(5-chloro-6-(2H-1,2,3-triazol-2-yl)pyridin-3-yl)-1-(2,6-dichloro-4-fluorophenyl)-5-(trifluoromethyl)-1H-pyrazole-4-carboxamide]
832 | Cc1c(F)ccc(-n2ncc(C(=O)Nc3cnc(-n4nccn4)c(Cl)c3)c2C(F)(F)F)c1Cl [Cpd 71, 1-(2-chloro-4-fluoro-3-methylphenyl)-N-(5-chloro-6-(2H-1,2,3-triazol-2-yl)pyridin-3-yl)-5-(trifluoromethyl)-1H-pyrazole-4-carboxamide]
891 | Cc1c(F)ccc(-n2ncc(C(=O)Nc3cnc(-n4nccn4)c(Cl)c3)c2C(F)(F)F)c1C [Cpd 77, N-(5-chloro-6-(2H-1,2,3-triazol-2-yl)pyridin-3-yl)-1-(4-fluoro-2,3-dimethylphenyl)-5-(trifluoromethyl)-1H-pyrazole-4-carboxamide]
2950 | O=C(Nc1cnc(-n2nccn2)c(Cl)c1)c1cnn(-c2ccncc2)c1C(F)F [Cpd 25, N-(5-chloro-6-(2H-1,2,3-triazol-2-yl)pyridin-3-yl)-5-(difluoromethyl)-1-(pyridin-4-yl)-1H-pyrazole-4-carboxamide]
4570 | N#Cc1ccc(-n2ncc(C(=O)Nc3cnc(-n4nccn4)c(Cl)c3)c2C(F)(F)F)nc1 [Cpd 11, N-(5-Chloro-6-(2H-1,2,3-triazol-2-yl)pyridin-3-yl)-1-(5-cyanopyridin-2-yl)-5-(trifluoromethyl)-1H-pyrazole-4-carboxamide]
8130 | Cc1c(-n2ncc(C(=O)Nc3cnc(-n4nccn4)c(Cl)c3)c2C(F)(F)F)ccnc1N1CC(O)C1 [Cpd 157, N-(5-chloro-6-(2H-1,2,3-triazol-2-yl)pyridin-3-yl)-1-(2-(3-hydroxyazetidin-1-yl)-3-methylpyridin-4-yl)-5-(trifluoromethyl)-1H-pyrazole-4-carboxamide]
380 | Cc1cc(F)c(N)nc1-n1ncc(C(=O)Nc2cc(Cl)c(-n3nccn3)nc2C)c1C(F)(F)F [Cpd 188, 1-(6-amino-5-fluoro-3-methylpyridin-2-yl)-N-(5-chloro-2-methyl-6-(2H-1,2,3-triazol-2-yl)pyridin-3-yl)-5-(trifluoromethyl)-1H-pyrazole-4-carboxamide]
1170 | N#Cc1cc(NC(=O)c2cnn(-c3ccc(N)nc3)c2C(F)(F)F)cnc1-n1nccn1 [Cpd 194, 1-(6-aminopyridin-3-yl)-N-(5-cyano-6-(2H-1,2,3-triazol-2-yl)pyridin-3-yl)-5-(trifluoromethyl)-1H-pyrazole-4-carboxamide]
724 | Cc1cc(N)ncc1-n1ncc(C(=O)Nc2cnc(-n3nccn3)c(Cl)c2)c1C(F)(F)F [Cpd 191, 1-(6-amino-4-methylpyridin-3-yl)-N-(5-chloro-6-(2H-1,2,3-triazol-2-yl)pyridin-3-yl)-5-(trifluoromethyl)-1H-pyrazole-4-carboxamide]
708 | N#Cc1cc(NC(=O)c2cnn(-c3ncc(Br)cc3Cl)c2C(F)(F)F)cnc1-n1nccn1 [Cpd 30, 1-(5-bromo-3-chloropyridin-2-yl)-N-(5-cyano-6-(2H-1,2,3-triazol-2-yl)pyridin-3-yl)-5-(trifluoromethyl)-1H-pyrazole-4-carboxamide]
955 | Cc1cnc(Cl)cc1-n1ncc(C(=O)Nc2cnc(-n3nccn3)c(Cl)c2)c1C(F)(F)F [Cpd 154, 1-(2-chloro-5-methyl-4-pyridyl)-N-[5-chloro-6-(triazol-2-yl)-3-pyridyl]-5-(trifluoromethyl)pyrazole-4-carboxamide]
316 | Cc1nc(Cl)ccc1-n1ncc(C(=O)Nc2cnc(-n3nccn3)c(C#N)c2)c1C(F)(F)F [Cpd 95, 1-(6-chloro-2-methylpyridin-3-yl)-N-(5-cyano-6-(2H-1,2,3-triazol-2-yl)pyridin-3-yl)-5-(trifluoromethyl)-1H-pyrazole-4-carboxamide]
676 | CC(C)c1ccccc1-n1ncc(C(=O)Nc2cnc(-n3nccn3)c(Cl)c2)c1C(F)(F)F [Cpd 76, N-(5-chloro-6-(2H-1,2,3-triazol-2-yl)pyridin-3-yl)-1-(2-isopropylphenyl)-5-(trifluoromethyl)-1H-pyrazole-4-carboxamide]
794 | N#Cc1cc(NC(=O)c2cnn(-c3ccc(F)nc3)c2C(F)(F)F)cnc1-n1nccn1 [Cpd 123, N-(5-cyano-6-(2H-1,2,3-triazol-2-yl)pyridin-3-yl)-1-(6-(fluoro)pyridin-3-yl)-5-(trifluoromethyl)-1H-pyrazole-4-carboxamide]
759 | N#Cc1cc(F)ccc1-n1ncc(C(=O)Nc2cnc(-n3nccn3)c(Cl)c2)c1C(F)(F)F [Cpd 136, N-(5-chloro-6-(2H-1,2,3-triazol-2-yl)pyridin-3-yl)-1-(2-cyano-4-fluorophenyl)-5-(trifluoromethyl)-1H-pyrazole-4-carboxamide]
537 | Cc1ccnc(-n2ncc(C(=O)Nc3cnc(-n4nccn4)c(C#N)c3)c2C(F)(F)F)c1Cl [Cpd 47, 1-(3-chloro-4-methylpyridin-2-yl)-N-(5-cyano-6-(2H-1,2,3-triazol-2-yl)pyridin-3-yl)-5-(trifluoromethyl)-1H-pyrazole-4-carboxamide]
3160 | Cc1ccnnc1-n1ncc(C(=O)Nc2cnc(-n3nccn3)c(Cl)c2)c1C(F)(F)F [Cpd 159, N-(5-chloro-6-(2H-1,2,3-triazol-2-yl)pyridin-3-yl)-1-(4-methylpyridazin-3-yl)-5-(trifluoromethyl)-1H-pyrazole-4-carboxamide]
1350 | O=C(Nc1cnc(-n2nccn2)c(Cl)c1)c1cnn(-c2cccnc2)c1C(F)(F)F [Cpd 12, N-(5-Chloro-6-(2H-1,2,3-triazol-2-yl)pyridin-3-yl)-1-(pyridin-3-yl)-5-(trifluoromethyl)-1H-pyrazole-4-carboxamide]
741 | O=C(Nc1cnc(-n2nccn2)c(Cl)c1)c1cnn(-c2cccc(Br)n2)c1C(F)(F)F [Cpd 202, 1-(6-bromopyridin-2-yl)-N-(5-chloro-6-(2H-1,2,3-triazol-2-yl)pyridin-3-yl)-5-(trifluoromethyl)-1H-pyrazole-4-carboxamide]
158 | Cc1cnc([C@H]2CCCO2)cc1-n1ncc(C(=O)Nc2cnc(-n3nccn3)c(Cl)c2)c1C(F)(F)F (single isomer, unassigned) [Cpd 203, (*R)—N-(5-chloro-6-(2H-1,2,3-triazol-2-yl)pyridin-3-yl)-1-(5-methyl-2-(tetrahydrofuran-2-yl)pyridin-4-yl)-5-(trifluoromethyl)-1H-pyrazole-4-carboxamide]
537 | O=C(Nc1cnc(-n2nccn2)c(Cl)c1)c1cnn(-c2ncc(F)cc2Cl)c1C(F)(F)F [Cpd 105, 1-(3-chloro-5-fluoropyridin-2-yl)-N-(5-chloro-6-(2H-1,2,3-triazol-2-yl)pyridin-3-yl)-5-(trifluoromethyl)-1H-pyrazole-4-carboxamide]
5130 | O=C(Nc1cnc(-n2nccn2)c(Cl)c1)c1cnn(-c2cccc(C3=COCCO3)n2)c1C(F)(F)F [Cpd 208, N-(5-chloro-6-(2H-1,2,3-triazol-2-yl)pyridin-3-yl)-1-(6-(5,6-dihydro-1,4-dioxin-2-yl)pyridin-2-yl)-5-(trifluoromethyl)-1H-pyrazole-4-carboxamide]
525 | O=C(Nc1cnc(-n2nccn2)c(Cl)c1)c1cnn(-c2c(Cl)cncc2Cl)c1C(F)(F)F [Cpd 67, N-(5-chloro-6-(2H-1,2,3-triazol-2-yl)pyridin-3-yl)-1-(3,5-dichloropyridin-4-yl)-5-(trifluoromethyl)-1H-pyrazole-4-carboxamide]
